From patent publication US9018391B2, “Inhibitors of beta-secretase” (Boehringer Ingelheim International GmbH, priority 2012, dated 2015) come the findings set out here.

Data set [1] deals with truncated human beta-secretase, BACE1 (amino acids 1-454) (Homo sapiens (Human), UniProt P56817). Briefly: BACE1 Assay (Assay 1), fluorescence quench assay. Type of data set: biochemical. Particulars: pH 4.4. As for the experimental part: The substrate was dissolved at 1 mg/ml in DMSO.
The assay was performed in the presence of OptiMEM™ (supernatant collected over 24 h and cleared from cellular debris by centrifugation) containing the ectodomain of BACE1, 25 μl water containing the desired 2-fold concentration of test compound and 2% DMSO, 1 μM substrate peptide, 20 mM NaOAc, pH 4.4, and 0.04% Triton-X100 in a total assay volume of 50 μl in a 384 well plate. In general, 25 μl of compound dilution were added to the plate followed by the addition of 10 μl of BACE1 containing OptiMEM™ diluted 1:10 in water with 0.2% Triton X-100. The reaction was started with the addition of 15 μl substrate in NaOAc buffer. The reaction was incubated at rt (dark) in an Envision® multilabel reader (Perkin Elmer) and the cleavage of the substrate was recorded as kinetic for […] at ex: 485 nm, em: 538 nm. Blank wells containing no enzyme were included on each plate.
The intensity of fluorescence was regressed against time in order to derive velocities of reaction in all 384 wells. These velocities were used for calculating percent control using an uninhibited control containing 1% DMSO as 100% and a blank control performed in the absence of enzyme as 0%. IC50 values were calculated by fitting percent control vs. test compound concentration using Assay Explorer®.

Data set [2] addresses hERG channel (Homo sapiens (Human), UniProt Q12809). As to the kind of experiment: hERG-Channel Assay (Assay 2), whole-cell patch clamp in HEK293 cells stably transfected with hERG cDNA. Type of data set: cell-based. Particulars: human, HEK293 cells stably transfected with hERG cDNA, pH 7.4, 35° C. From the text:
hERG-Channel Assay (Assay 2)
Cells: HEK (human embryonic kidney) 293 cells were stably transfected with hERG cDNA.
Cells were superfused with a bath solution containing (mM): NaCl (137), KCl (4.0), MgCl2 (1.0), CaCl2 (1.8), Glucose (10), HEPES (10), pH 7.4 with NaOH. Patch pipettes were made from borosilicate glass tubing using a horizontal puller and filled with pipette solution containing (mM): K-aspartate (130), MgCl2 (5.0), EGTA (5.0), K2ATP (4.0), HEPES (10.0), pH 7.2 with KOH. Resistance of the microelectrodes was in the range between 2 and 5 MΩ.
Stimulation and Recording:
Membrane currents were recorded using an EPC-10 patch clamp amplifier and PatchMaster software. hERG-mediated membrane currents were recorded at 35° C., using the whole-cell configuration of the patch-clamp technique. Transfected HEK293 cells were clamped at a holding potential of −60 mV and hERG-mediated inactivating tail currents were elicited using a pulse pattern with fixed amplitudes (activation/inactivation: 40 mV for 2000 ms; recovery: −120 mV for 2 ms; ramp to 40 mV in 2 ms; inactivating tail current: 40 mV for 50 ms) repeated at 15 s intervals. During each inter-pulse interval, 4 pulses scaled down by a factor of 0.2 were recorded for a P/n leak subtraction procedure. Rs compensation was employed up to a level that safely allowed recording devoid of ringing.
Compound Preparation and Application:
The different concentrations of the test compounds were applied sequentially on each of the different cells investigated. A steady state level of baseline current was measured for at least 6 sweeps prior to the application of the first test compound concentration.
The test compound was dissolved in DMSO to yield a master stock solution which was diluted further in DMSO to stock solutions needed for the lower concentrations. Final dilutions in extracellular buffer were prepared freshly from these stocks by a 1:1000 dilution step each before starting the experiments.
Peak current amplitudes were measured 3 ms after the ramp to +40 mV. For baseline and each concentration, the peak currents of the three last sweeps before application of the next concentration were averaged. Residual currents (I/I0) were calculated for each cell as the fraction of actual average peak current and average baseline peak current.

Chain of hERG channel (Q12809 whole entry): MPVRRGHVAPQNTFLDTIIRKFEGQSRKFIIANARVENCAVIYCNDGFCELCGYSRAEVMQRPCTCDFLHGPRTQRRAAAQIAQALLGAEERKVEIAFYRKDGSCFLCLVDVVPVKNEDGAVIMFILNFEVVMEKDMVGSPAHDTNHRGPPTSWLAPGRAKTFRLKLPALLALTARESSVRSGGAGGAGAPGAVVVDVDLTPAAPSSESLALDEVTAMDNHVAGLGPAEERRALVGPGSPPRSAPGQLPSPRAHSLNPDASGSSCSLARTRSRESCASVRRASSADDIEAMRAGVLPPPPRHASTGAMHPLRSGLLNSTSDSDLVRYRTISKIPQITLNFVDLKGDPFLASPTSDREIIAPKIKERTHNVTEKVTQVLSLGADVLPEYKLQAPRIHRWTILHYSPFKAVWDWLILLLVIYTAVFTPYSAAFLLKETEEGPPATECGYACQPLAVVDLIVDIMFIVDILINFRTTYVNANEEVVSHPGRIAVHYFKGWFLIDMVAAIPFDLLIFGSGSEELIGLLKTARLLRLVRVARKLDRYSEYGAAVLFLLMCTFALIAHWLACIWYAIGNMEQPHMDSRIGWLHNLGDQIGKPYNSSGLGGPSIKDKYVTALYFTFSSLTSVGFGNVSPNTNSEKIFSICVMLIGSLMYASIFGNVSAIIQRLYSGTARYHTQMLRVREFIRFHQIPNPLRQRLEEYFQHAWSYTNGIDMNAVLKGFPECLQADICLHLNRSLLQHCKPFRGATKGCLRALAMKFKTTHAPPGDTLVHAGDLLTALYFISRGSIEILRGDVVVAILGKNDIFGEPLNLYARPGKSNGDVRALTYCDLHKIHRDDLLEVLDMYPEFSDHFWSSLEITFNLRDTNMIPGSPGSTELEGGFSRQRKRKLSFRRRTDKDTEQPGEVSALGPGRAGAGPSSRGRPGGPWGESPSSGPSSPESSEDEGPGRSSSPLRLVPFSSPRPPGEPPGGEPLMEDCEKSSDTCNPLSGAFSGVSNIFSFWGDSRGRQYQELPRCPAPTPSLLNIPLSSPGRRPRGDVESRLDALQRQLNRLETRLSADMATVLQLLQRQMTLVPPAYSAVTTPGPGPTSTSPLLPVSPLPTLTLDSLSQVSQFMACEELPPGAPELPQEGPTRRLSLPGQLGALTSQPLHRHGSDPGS
Chain of truncated human beta-secretase, BACE1 (amino acids 1-454) (P56817 22-454): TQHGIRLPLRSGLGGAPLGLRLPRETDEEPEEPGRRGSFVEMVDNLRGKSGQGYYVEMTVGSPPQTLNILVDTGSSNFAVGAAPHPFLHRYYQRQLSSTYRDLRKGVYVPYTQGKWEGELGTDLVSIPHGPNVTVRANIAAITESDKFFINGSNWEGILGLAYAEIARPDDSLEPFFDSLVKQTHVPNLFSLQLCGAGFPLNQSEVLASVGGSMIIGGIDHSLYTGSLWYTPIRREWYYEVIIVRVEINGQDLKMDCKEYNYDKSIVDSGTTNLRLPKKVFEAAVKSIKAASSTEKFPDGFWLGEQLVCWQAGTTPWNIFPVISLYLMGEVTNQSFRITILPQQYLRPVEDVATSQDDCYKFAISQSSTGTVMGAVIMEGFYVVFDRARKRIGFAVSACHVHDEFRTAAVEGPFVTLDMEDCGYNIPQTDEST

In the case of `C[C@@H]1C[C@@]2(Cc3ccc(C#N)cc3[C@]23N=C(N)N(CCC(F)(F)F)C3=O)C[C@H](C)[C@H]1O` [Example 1], half-maximal inhibition in data set [1] (IC50) required 14.6 nM. The molecule further returned an inhibition at 10 µM in data set [2] of 13%.

The molecule `C[C@@H]1C[C@@]2(Cc3ccc(C#N)cc3[C@]23N=C(N)N(CC(C)(C)F)C3=O)C[C@H](C)[C@H]1O` [Example 2] showed an IC50 in data set [1] of 10.3 nM. The inhibition at 10 µM in data set [2] was determined as 4.5%.

For `C[C@@H]1C[C@@]2(Cc3ccc(C#N)cc3[C@]23N=C(N)N(CC2(F)CCOCC2)C3=O)C[C@H](C)[C@H]1O` [Example 4], inhibition in data set [1] was half-maximal at 2.7 nM (IC50). In data set [2], this molecule had an inhibition at 10 µM of 13%.

`CC[C@@H]1C[C@@]2(Cc3ccc(C#N)cc3[C@]23N=C(N)N(CC(C)(C)F)C3=O)C[C@H](C)[C@H]1O` [Example 7] registered an IC50 in data set [1] of 3.4 nM. Moreover, in data set [2], 10 µM produced 15% inhibition.

The molecule `CC[C@@H]1C[C@]2(CC[C@H]1O)Cc1ccc(C#N)cc1[C@]21N=C(N)N(CC(C)(C)F)C1=O` [Example 9] yielded an IC50 in data set [1] of 10.7 nM. The same molecule showed an inhibition at 10 µM in data set [2] of 2.5%.

As a reminder, the IC50 is the concentration that gives 50% inhibition. Low values mean inhibition by little substance, high ones a need for much substance. In general, inhibition refers to the change of the read-out against control, counted positive when it falls.
